According to article PMC10287183 (Antiviral Research, 2023):
Read-outs that look alike come from different tables or passages of the source.

What was measured:
SARS-CoV2 D614G = type: cell-based, SARS-CoV-2; conditions: for EC90: read-out: EC90 (mean ± SD)
in vitro = conditions: human
SARS-CoV-2 D614G = type: cell-based

| Compound | Highest % of Virus Inhibition (SARS-CoV2 D614G) [%] | EC90 (SARS-CoV2 D614G) [µM] | CC50 (in vitro) [µM] | virus entry step (SARS-CoV-2 D614G) | Highest % of Virus Inhibition (SARS-CoV2 D614G; […], highest concentration tested 100 μM (CLIK-148 60 μM)) [%] | CC50 (Huh7-hACE2) [µM] |
| --- | --- | --- | --- | --- | --- | --- |
| CCN(CCO)CCCC(C)Nc1ccnc2cc(Cl)ccc12 (centres unmarked) [Hydroxychloroquin, Hydroxychloroquine] | 98 | 18.9 ± 2.3 | > 100 | – | – | – |
| O=[N+]([O-])c1ccc(O)c2ncccc12 [Nitroxoline, nitroxoline] | – | 9.9 ± 8 | > 100 | inhibited this step similarly to HCQ | – | – |
| CLIK-148 [CLIK 148] | – | – | – | – | 64 | > 100 |
